The source of these data is patent publication US20140155389A1, “BICYCLIC INHIBITORS OF ALK” (ABBVIE INC., priority 2011, published 2014).

The assay has as its target T1, ALK (Homo sapiens, UniProt Q9UM73).
T1 construct: purchased Millipore
Description: ALK kinase assay (HTRF). The class given is biochemical. As to conditions: apparent Ki from IC50 by Cheng-Prusoff; ALK (Millipore) 3 nM or 4 nM, 50 μM ATP, 1 h at room temperature; read-out: HTRF_ALK Human - Ki. (Time-resolved FRET reads energy transfer from a long-lived donor to a nearby acceptor.)

T1 sequence (Q9UM73 19-1620): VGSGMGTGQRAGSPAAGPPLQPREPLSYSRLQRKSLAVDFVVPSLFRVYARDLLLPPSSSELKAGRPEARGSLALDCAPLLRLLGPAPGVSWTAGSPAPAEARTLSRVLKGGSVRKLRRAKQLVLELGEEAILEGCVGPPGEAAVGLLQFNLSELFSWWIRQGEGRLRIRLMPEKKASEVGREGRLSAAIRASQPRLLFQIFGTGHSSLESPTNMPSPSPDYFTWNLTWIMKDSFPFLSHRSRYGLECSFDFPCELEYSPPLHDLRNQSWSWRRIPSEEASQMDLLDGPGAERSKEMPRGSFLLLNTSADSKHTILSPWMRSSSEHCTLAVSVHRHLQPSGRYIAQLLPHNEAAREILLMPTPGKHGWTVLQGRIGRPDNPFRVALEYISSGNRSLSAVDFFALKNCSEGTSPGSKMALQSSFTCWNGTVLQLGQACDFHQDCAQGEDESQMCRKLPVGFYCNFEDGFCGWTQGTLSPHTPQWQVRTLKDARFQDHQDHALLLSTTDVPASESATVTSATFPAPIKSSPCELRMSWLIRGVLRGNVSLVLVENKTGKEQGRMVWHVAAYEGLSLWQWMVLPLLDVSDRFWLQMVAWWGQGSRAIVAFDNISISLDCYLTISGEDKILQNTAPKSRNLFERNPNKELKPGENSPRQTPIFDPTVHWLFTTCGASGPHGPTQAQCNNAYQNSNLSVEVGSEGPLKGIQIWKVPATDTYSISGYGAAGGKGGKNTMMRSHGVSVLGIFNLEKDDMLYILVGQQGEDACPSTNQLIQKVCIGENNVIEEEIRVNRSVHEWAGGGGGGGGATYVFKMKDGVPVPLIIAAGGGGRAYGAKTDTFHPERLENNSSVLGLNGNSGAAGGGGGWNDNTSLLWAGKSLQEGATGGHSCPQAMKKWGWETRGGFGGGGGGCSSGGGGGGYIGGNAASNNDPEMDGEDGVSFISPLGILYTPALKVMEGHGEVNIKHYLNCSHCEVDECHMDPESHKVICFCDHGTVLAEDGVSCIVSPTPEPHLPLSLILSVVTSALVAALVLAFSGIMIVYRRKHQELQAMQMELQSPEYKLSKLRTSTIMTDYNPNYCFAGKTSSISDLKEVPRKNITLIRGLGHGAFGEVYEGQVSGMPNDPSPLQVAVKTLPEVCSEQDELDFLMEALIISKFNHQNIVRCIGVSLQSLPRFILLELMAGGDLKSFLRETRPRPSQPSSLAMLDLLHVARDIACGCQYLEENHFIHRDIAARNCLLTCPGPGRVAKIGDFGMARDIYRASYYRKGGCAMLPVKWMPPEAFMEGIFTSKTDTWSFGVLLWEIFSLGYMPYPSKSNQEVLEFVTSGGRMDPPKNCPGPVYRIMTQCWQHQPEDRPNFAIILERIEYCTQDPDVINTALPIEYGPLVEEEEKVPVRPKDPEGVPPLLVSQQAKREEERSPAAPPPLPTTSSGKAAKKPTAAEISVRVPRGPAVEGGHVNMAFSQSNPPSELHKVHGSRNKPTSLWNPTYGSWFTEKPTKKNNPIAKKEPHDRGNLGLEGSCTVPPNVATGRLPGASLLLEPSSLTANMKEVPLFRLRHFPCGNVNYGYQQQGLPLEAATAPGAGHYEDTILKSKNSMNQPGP

Regarding `COc1cc(N2CCNCC2)ccc1Nc1nc(Nc2ccc(Cl)cc2Cl)cc2cnnc(O)c12` [Example 34, 7-[(2,4-dichlorophenyl)amino]-5-{[2-methoxy-4-(piperazin-1-yl)phenyl]amino}pyrido[3,4-d]pyridazin-4-ol], the Ki worked out at 4 nM.

Regarding `COc1cc(N2CCNCC2)ccc1Nc1nc(Nc2c(Cl)cc(F)cc2Cl)cc2cnnc(O)c12` [Example 35, 7-[(2,6-dichloro-4-fluorophenyl)amino]-5-{[2-methoxy-4-(piperazin-1-yl)phenyl]amino}pyrido[3,4-d]pyridazin-4-ol], the Ki was determined as 1 nM.

On to `COCCNc1cc2cnnc(O)c2c(Nc2ccc(N3CCNCC3)cc2OC)n1` [Example 36, 7-[(2-methoxyethyl)amino]-5-{[2-methoxy-4-(piperazin-1-yl)phenyl]amino}pyrido[3,4-d]pyridazin-4-ol], for which the Ki was 26 nM.

As to `COc1cc(N2CCNCC2)ccc1Nc1nc(Nc2cccc(F)c2F)cc2cn[nH]c(=O)c12` [Example 37, 7-[(2,3-difluorophenyl)amino]-5-{[2-methoxy-4-(piperazin-1-yl)phenyl]amino}pyrido[3,4-d]pyridazin-4(3H)-one], the Ki stood at 3 nM.

`COc1cc(N2CCNCC2)ccc1Nc1nc(NCc2ccco2)cc2cnnc(O)c12` [Example 38, 7-[(furan-2-ylmethyl)amino]-5-{[2-methoxy-4-(piperazin-1-yl)phenyl]amino}pyrido[3,4-d]pyridazin-4-ol]: the Ki is 16 nM.

`COc1cc(N2CCNCC2)ccc1Nc1nc(N2CCCCC2)cc2cn[nH]c(=O)c12` [Example 39, 5-{[2-methoxy-4-(piperazin-1-yl)phenyl]amino}-7-(piperidin-1-yl)pyrido[3,4-d]pyridazin-4(3H)-one]: the Ki came out at 7 nM.

`COc1cc(N2CCNCC2)ccc1Nc1nc(NCc2ccccc2)cc2cn[nH]c(=O)c12` [Example 40, 7-(benzylamino)-5-{[2-methoxy-4-(piperazin-1-yl)phenyl]amino}pyrido[3,4-d]pyridazin-4(3H)-one]: the Ki is 36 nM.

Consider `COc1cc(N2CCNCC2)ccc1Nc1nc(-c2ccccc2)cc2cn[nH]c(=O)c12` [Example 41, 5-{[2-methoxy-4-(piperazin-1-yl)phenyl]amino}-7-phenylpyrido[3,4-d]pyridazin-4(3H)-one], for which the Ki was 28 nM.

In the case of `O=c1[nH]ncc2cc(Cc3c(Cl)cccc3Cl)nc(Nc3c(F)cc(N4CCNCC4)cc3F)c12` [Example 42, 7-(2,6-dichlorobenzyl)-5-{[2,6-difluoro-4-(piperazin-1-yl)phenyl]amino}pyrido[3,4-d]pyridazin-4(3H)-one], the Ki was 25 nM.

On to `COc1cc(N2CCNCC2)ccc1Nc1nc(Nc2ccccn2)cc2cn[nH]c(=O)c12` [Example 43, 5-{[2-methoxy-4-(piperazin-1-yl)phenyl]amino}-7-(pyridin-2-ylamino)pyrido[3,4-d]pyridazin-4(3H)-one], for which the Ki worked out at 15 nM.

For `COc1cc(N2CCNCC2)ccc1Nc1nc(Nc2cccnc2)cc2cn[nH]c(=O)c12` [Example 44, 5-{[2-methoxy-4-(piperazin-1-yl)phenyl]amino}-7-(pyridin-3-ylamino)pyrido[3,4-d]pyridazin-4(3H)-one], the Ki amounted to 13 nM.

Turning to `COc1cc(N2CCNCC2)ccc1Nc1nc(NCCN(C)C)cc2cn[nH]c(=O)c12` [Example 45, 7-{[2-(dimethylamino)ethyl]amino}-5-{[2-methoxy-4-(piperazin-1-yl)phenyl]amino}pyrido[3,4-d]pyridazin-4(3H)-one], the Ki worked out at 51 nM.

For the molecule `COc1cc(N2CCNCC2)ccc1Nc1nc(NC2CCCCC2)cc2cn[nH]c(=O)c12` [Example 46, 7-(cyclohexylamino)-5-{[2-methoxy-4-(piperazin-1-yl)phenyl]amino}pyrido[3,4-d]pyridazin-4(3H)-one], the Ki stood at 3 nM.

For `COc1cc(N2CCNCC2)ccc1Nc1nc(NCCc2ccccn2)cc2cnnc(O)c12` [Example 47, 5-{[2-methoxy-4-(piperazin-1-yl)phenyl]amino}-7-{[2-(pyridin-2-yl)ethyl]amino}pyrido[3,4-d]pyridazin-4-ol], the Ki was 53 nM.

With `COc1cc(N2CCNCC2)ccc1Nc1nc(Nc2ccccc2F)cc2cn[nH]c(=O)c12` [Example 48, 7-[(2-fluorophenyl)amino]-5-{[2-methoxy-4-(piperazin-1-yl)phenyl]amino}pyrido[3,4-d]pyridazin-4(3H)-one], the Ki was 4 nM.

On to `COc1cc(N2CCNCC2)ccc1Nc1nc(Nc2c(C)cccc2C)cc2cn[nH]c(=O)c12` [Example 49, 7-[(2,6-dimethylphenyl)amino]-5-{[2-methoxy-4-(piperazin-1-yl)phenyl]amino}pyrido[3,4-d]pyridazin-4(3H)-one], for which the Ki was determined as 1 nM.

Take `COc1cc(N2CCNCC2)ccc1Nc1nc(Nc2ncccc2Cl)cc2cn[nH]c(=O)c12` [Example 50, 7-[(3-chloropyridin-2-yl)amino]-5-{[2-methoxy-4-(piperazin-1-yl)phenyl]amino}pyrido[3,4-d]pyridazin-4(3H)-one]: the Ki worked out at 9 nM.

Consider `COc1cc(N2CCNCC2)ccc1Nc1nc(Nc2cccc(Cl)c2Cl)cc2cn[nH]c(=O)c12` [Example 51, 7-[(2,3-dichlorophenyl)amino]-5-{[2-methoxy-4-(piperazin-1-yl)phenyl]amino}pyrido[3,4-d]pyridazin-4(3H)-one], for which the Ki worked out at 2 nM.

On to `COc1cc(N2CCNCC2)ccc1Nc1nc(Nc2c(F)cc(F)cc2F)cc2cn[nH]c(=O)c12` [Example 52, 5-{[2-methoxy-4-(piperazin-1-yl)phenyl]amino}-7-[(2,4,6-trifluorophenyl)amino]pyrido[3,4-d]pyridazin-4(3H)-one], for which the Ki worked out at 2 nM.

Regarding `COc1cc(N2CCNCC2)ccc1Nc1nc(Nc2ccc(F)c(F)c2F)cc2cn[nH]c(=O)c12` [Example 53, 5-{[2-methoxy-4-(piperazin-1-yl)phenyl]amino}-7-[(2,3,4-trifluorophenyl)amino]pyrido[3,4-d]pyridazin-4(3H)-one], the Ki came out at 4 nM.

In the case of `COc1cc(N2CCNCC2)ccc1Nc1nc(Nc2cccc(Cl)c2F)cc2cnnc(O)c12` [Example 54, 7-[(3-chloro-2-fluorophenyl)amino]-5-{[2-methoxy-4-(piperazin-1-yl)phenyl]amino}pyrido[3,4-d]pyridazin-4-ol], the Ki turned out to be 4 nM.

For `COc1cc(N2CCNCC2)ccc1Nc1nc(NC2CCOCC2)cc2cnnc(O)c12` [Example 55, 5-{[2-methoxy-4-(piperazin-1-yl)phenyl]amino}-7-(tetrahydro-2H-pyran-4-ylamino)pyrido[3,4-d]pyridazin-4-ol], the Ki came out at 6 nM.

On to `COc1cc(N2CCNCC2)ccc1Nc1nc(Nc2nccs2)cc2cn[nH]c(=O)c12` [Example 56, 5-{[2-methoxy-4-(piperazin-1-yl)phenyl]amino}-7-(1,3-thiazol-2-ylamino)pyrido[3,4-d]pyridazin-4(3H)-one], for which the Ki amounted to 5 nM.

With `O=c1[nH]ncc2cc(Cc3c(Cl)cccc3Cl)nc(Nc3ccc(N4CCNCC4)cc3Cl)c12` [Example 57, 5-{[2-chloro-4-(piperazin-1-yl)phenyl]amino}-7-(2,6-dichlorobenzyl)pyrido[3,4-d]pyridazin-4(3H)-one], the Ki stood at 2 nM.

In the case of `COc1cc(N2CCNCC2)ccc1Nc1nc(NC2CCN(C)CC2)cc2cn[nH]c(=O)c12` [Example 58, 5-{[2-methoxy-4-(piperazin-1-yl)phenyl]amino}-7-[(1-methylpiperidin-4-yl)amino]pyrido[3,4-d]pyridazin-4(3H)-one], the Ki is 4 nM.

Consider `COc1c(Nc2nc(Cc3c(Cl)cccc3Cl)cc3cnnc(O)c23)ccc(N2CCNCC2)c1F` [Example 59, 7-(2,6-dichlorobenzyl)-5-{[3-fluoro-2-methoxy-4-(piperazin-1-yl)phenyl]amino}pyrido[3,4-d]pyridazin-4-ol], for which the Ki came to 4 nM.

As to `COc1cc(N2CCNCC2)ccc1Nc1nc(Nc2ccncc2Cl)cc2cn[nH]c(=O)c12` [Example 60, 7-[(3-chloropyridin-4-yl)amino]-5-{[2-methoxy-4-(piperazin-1-yl)phenyl]amino}pyrido[3,4-d]pyridazin-4(3H)-one], the Ki was 3 nM.

As for `O=c1[nH]ncc2cc(Cc3c(Cl)cccc3Cl)nc(Nc3ccc(N4CCNCC4)cc3Br)c12` [Example 61, 5-{[2-bromo-4-(piperazin-1-yl)phenyl]amino}-7-(2,6-dichlorobenzyl)pyrido[3,4-d]pyridazin-4(3H)-one], the Ki amounted to 2 nM.

Consider `COc1cc(N2CCNCC2)ccc1Nc1nc(Oc2ccccc2Cl)cc2cn[nH]c(=O)c12` [Example 62, 7-(2-chlorophenoxy)-5-{[2-methoxy-4-(piperazin-1-yl)phenyl]amino}pyrido[3,4-d]pyridazin-4(3H)-one], for which the Ki was 2 nM.

Regarding `COc1cc(N2CCNCC2)ccc1Nc1nc(Oc2c(Cl)cccc2Cl)cc2cn[nH]c(=O)c12` [Example 63, 7-(2,6-dichlorophenoxy)-5-{[2-methoxy-4-(piperazin-1-yl)phenyl]amino}pyrido[3,4-d]pyridazin-4(3H)-one], the Ki is 1 nM.

As for `Oc1nncc2cc(Cc3c(Cl)cccc3Cl)nc(Nc3ccc(N4CCNCC4)cc3OC(F)(F)F)c12` [Example 64, 7-(2,6-dichlorobenzyl)-5-{[4-(piperazin-1-yl)-2-(trifluoromethoxy)phenyl]amino}pyrido[3,4-d]pyridazin-4-ol], the Ki stood at 21 nM.

For the molecule `COc1cc(N2CCNCC2)ccc1Nc1nc(Nc2c(F)ccc(Cl)c2Cl)cc2cn[nH]c(=O)c12` [Example 65, 7-[(2,3-dichloro-6-fluorophenyl)amino]-5-{[2-methoxy-4-(piperazin-1-yl)phenyl]amino}pyrido[3,4-d]pyridazin-4(3H)-one], the Ki worked out at 1 nM.

Take `COc1cc(N2CCN3CCCC3C2)ccc1Nc1nc(Cc2c(Cl)cccc2Cl)cc2cn[nH]c(=O)c12` (stereo not drawn) [Example 66, 7-(2,6-dichlorobenzyl)-5-{[4-(hexahydropyrrolo[1,2-a]pyrazin-2(1H)-yl)-2-methoxyphenyl]amino}pyrido[3,4-d]pyridazin-4(3H)-one]: the Ki turned out to be 10 nM.
